Assay results from patent US10415054B2, “Designer circuit controlling diet-induced obesity” (ETH ZURICH, priority 2013, dated 2019).

Assays:
[1] = molecular target: T1, lipid-sensing receptor (LSR; TtgR-PPARα) (UniProt Q07869+Q9AIU0); experiment: Fatty acid/fibrate-controlled SEAP expression in pKR135/pMG10-transgenic HT-1080; format: cell-based, human; conditions: for sensitivity of LSR (SEAP expression): pKR135/pMG10-transgenic HT-1080, 48 h, FIG. 3d,e
T1 construct: TtgR (phloretin-responsive repressor of Pseudomonas putida DOT-T1E); expressed in transfected cells; host or cells: HT-1080 (A1, A5; in A5 microencapsulated and implanted into mice); several rodent, primate and human cell lines (A2)
T1 sequence (Q9AIU0+Q07869 with tags, fused parts or gaps): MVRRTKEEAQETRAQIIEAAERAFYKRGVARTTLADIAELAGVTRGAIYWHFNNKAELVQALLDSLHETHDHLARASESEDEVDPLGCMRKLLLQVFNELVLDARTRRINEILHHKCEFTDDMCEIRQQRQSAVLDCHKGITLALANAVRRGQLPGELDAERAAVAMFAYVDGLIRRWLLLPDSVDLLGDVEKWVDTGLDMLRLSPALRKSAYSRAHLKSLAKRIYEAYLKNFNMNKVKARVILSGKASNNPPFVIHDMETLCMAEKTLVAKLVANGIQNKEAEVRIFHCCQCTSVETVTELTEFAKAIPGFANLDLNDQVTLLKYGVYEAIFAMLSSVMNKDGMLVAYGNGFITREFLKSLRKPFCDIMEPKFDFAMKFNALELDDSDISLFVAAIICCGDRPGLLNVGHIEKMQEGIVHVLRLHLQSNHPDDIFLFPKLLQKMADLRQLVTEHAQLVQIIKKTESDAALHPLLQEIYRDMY
Procedure: Wild-type Chinese hamster ovary cells (CHO-K1, ATCC: CCL-61) were cultured in ChoMaster® HTS (Cell Culture Technologies GmbH, Gravesano, Switzerland) containing 1% penicillin/streptomycin. All cell types were cultivated at 37° C. in a humidified atmosphere containing 5% CO2. […] After transfection, all cells were cultivated in their specific media containing different inducer concentrations and reporter protein levels were profiled after 48 h unless stated otherwise. […]

LSR sensor device = molecular target: T2, LSR sensor device (UniProt Q07869+Q9AIU0); experiment: Serum SEAP in wild type mice implanted with microencapsulated pKR135/pMG10-transgenic HT-1080; format: in vivo; conditions: wild type mice on standard diet, 48 h, FIG. 4a,b
T2 construct: TtgR (phloretin-responsive repressor of Pseudomonas putida DOT-T1E); expressed in transfected cells; host or cells: HT-1080 (A1, A5; in A5 microencapsulated and implanted into mice); several rodent, primate and human cell lines (A2)
T2 sequence (Q9AIU0+Q07869 with tags, fused parts or gaps): T1 sequence (Q9AIU0+Q07869 with tags, fused parts or gaps)
Source text: (a-d) Standard low fat-fed wild type mice were implanted with microencapsulated pKR135-/pMG10-transgenic HT-1080 (2×10^6 cells/mouse) and received different doses of linoleic acid (LA) and palmitic acid (PA) (fatty acids, FA) (a), rapeseed oil (RO) (b) or were put on standard low fat (LF, 5 kcal % fat), medium fat (MF, 10 kcal % fat) and high fat (HF, 60 kcal % fat) diets (D) (c, d). Resulting blood SEAP (bSEAP) levels (a, b, d) and blood fat levels (BF) represented by serum cholesterol (C) and phospholipid (PL) concentrations (c) were quantified after 48 h (a, b, d) or 72 h (c). Data are mean±SEM, statistics by two-tailed t test; n=8 mice. *P<0.05, **P<0.005, ***P<0.0001 vs. zero lipid doses (a,b) or LF mice (c,d).
Production of the human placental secreted alkaline phosphatase (SEAP) in culture was quantified according to a p-nitrophenylphosphate-based time course of light absorbance (Schlatter S. et al., Gene 282, 19-31 (2002)). Serum levels of SEAP were quantified using a chemiluminescence-based assay (Roche Diagnostics GmbH, Mannheim, Germany). […]

TtgA1 (TtgR-VP16) = molecular target: T3, TtgA1 (TtgR-VP16) (Pseudomonas putida, UniProt Q9AIU0); experiment: Phloretin-responsive gene switch (pMG10/pMG11) in HT-1080 exposed to linoleic acid; format: cell-based; conditions: HT-1080 pMG10/pMG11, 48 h, FIG. 6
T3 construct: expressed in transfected cells; host or cells: HT-1080
Procedure: HT-1080 were cotransfected with the components encoding the phloretin-responsive gene switch (pMG10, (PTtgR1-SEAP-pA) and pMG11, (PSV40-TtgA1-pA)) and grown for 48 h in the presence of increasing linoleic acid (LA) concentrations before SEAP was profiled in the cell culture supernatant.
(§1) Human embryonic kidney cells (HEK-293T, ATCC: CRL-11268), Baby hamster kidney cells (BHK-21, ATCC: CCL-10), African green monkey kidney cells (COS-7, ATCC: CRL-1651), human cervical adenocarcinoma cells (HeLa, ATCC: CCL-2), human fibrosarcoma cells (HT-1080, ATCC: CCL-121) and immortalized human mesenchymal stem cells (hMSC) (Simonsen, J. L. et al., Nat Biotechnol 20, 592-596 (2002)) were cultivated in Dulbecco's modified Eagle's medium (DMEM; Invitrogen, Basel, Switzerland) supplemented with 1% (v/v) penicillin/streptomycin solution (Sigma-Aldrich, Munich, Germany). Wild-type Chinese hamster ovary cells (CHO-K1, ATCC: CCL-61) were cultured in ChoMaster® HTS (Cell Culture Technologies GmbH, Gravesano, Switzerland) containing 1% penicillin/streptomycin. […]
(§2) Production of the human placental secreted alkaline phosphatase (SEAP) in culture was quantified according to a p-nitrophenylphosphate-based time course of light absorbance (Schlatter S. et al., Gene 282, 19-31 (2002)). Serum levels of SEAP were quantified using a chemiluminescence-based assay (Roche Diagnostics GmbH, Mannheim, Germany).

[2] = molecular target: T1, lipid-sensing receptor (LSR; TtgR-PPARα); experiment: Linoleic acid-induced SEAP expression in different cell lines cotransfected with pKR135/pMG10; format: cell-based; conditions: several rodent, primate and human cell lines, 48 h, FIG. 2
Procedure: Linoleic acid-induced SEAP expression in different cell lines. Cells were cotransfected with the LSR-encoding expression vector (pKR135; PhCMV-LSR-pA) and the PTtgR1-driven SEAP expression plasmid (pMG10; […]), grown in the presence of different linoleic acid (LA) concentrations, and SEAP levels were profiled in the culture supernatant after 48 h.
as §1, with “Germany).” for “Germany). Wild-type Chinese hamster ovary cells (CHO-K1, ATCC: CCL-61) were cultured in ChoMaster® HTS (Cell Culture Technologies GmbH, Gravesano, Switzerland) containing 1% penicillin/streptomycin.”
as §2

Row | Structure (SMILES) | sensitivity of LSR (SEAP expression) [1] | other results
1 | Cc1ccc(C)c(OCCCC(C)(C)C(=O)O)c1 [gemfibrozil] | sensitive | –
2 | CCCCCCCCCCCCCCCC(=O)O [palmitic acid] | sensitive | SEAP in serum (LSR sensor device): significant dose-dependent increase
3 | CCCCCCCCCCCC(=O)O [lauric acid] | sensitive | –
4 | CCCCC/C=C\C/C=C\C/C=C\C/C=C\CCCC(=O)O [arachidonic acid] | sensitive | –
5 | O=C(CCc1ccc(O)cc1)c1c(O)cc(O)cc1O [phloretin] | – | phloretin-triggered effect on fatty acid-induced transgene (SEAP) expression ([1]; HT-1080 induced by 100 μM linoleic acid, 48 h, FIG. 3c): shut down transgene expression
6 | CCCCCCCCCCCCCCCCCC(=O)O [stearic acid] | sensitive | –
7 | CCCCCCCC/C=C\CCCCCCCC(=O)O [oleic acid] | sensitive | –
8 | CCCCC/C=C\C/C=C\CCCCCCCC(=O)O [linoleic acid] | sensitive | sensitivity of the phloretin-responsive control element (SEAP) (TtgA1 (TtgR-VP16)): Insensitivity; SEAP induction [2]: SEAP was exclusively induced; SEAP in serum (LSR sensor device): significant dose-dependent increase
9 | CCCCCCCCCCCCCC(=O)O [myristic acid] | sensitive | –
10 | Cc1cccc(Nc2cc(Cl)nc(SCC(=O)O)n2)c1C [WY-14643] | sensitive | –
